# Source: ChEMBL document CHEMBL1135773, “Purine and pyrimidine (P2) receptors as drug targets” (J Med Chem, 2002)
# Tests used:
# P2X purinoceptor 1 [1] = target: T1, P2X purinoceptor 1 (Rattus norvegicus, UniProt P47824); assay: The compound was evaluated for antagonist activity against recombinant rat P2X purinoceptor 1 (P2X1); format: functional
# T1 sequence (P47824 whole entry): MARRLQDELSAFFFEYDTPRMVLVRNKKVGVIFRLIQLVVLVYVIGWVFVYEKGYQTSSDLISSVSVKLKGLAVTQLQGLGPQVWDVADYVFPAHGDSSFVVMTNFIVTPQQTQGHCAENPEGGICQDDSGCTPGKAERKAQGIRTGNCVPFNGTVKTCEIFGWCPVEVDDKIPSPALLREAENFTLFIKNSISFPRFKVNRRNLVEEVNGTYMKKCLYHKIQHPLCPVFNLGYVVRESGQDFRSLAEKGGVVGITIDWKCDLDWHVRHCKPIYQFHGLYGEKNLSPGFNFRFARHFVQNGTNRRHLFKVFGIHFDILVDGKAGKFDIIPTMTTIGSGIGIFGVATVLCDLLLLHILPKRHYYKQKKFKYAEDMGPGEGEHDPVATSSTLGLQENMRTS
# P2X purinoceptor 1 [2] = target: T1, P2X purinoceptor 1; assay: The compound was evaluated for antagonist activity against P2X purinoceptor 1 (P2X1) like receptor from rat vas deferens; format: functional
# P2Y purinoceptor 6 = P2Y purinoceptor 6 (Homo sapiens, UniProt Q15077); assay: The compound was evaluated for agonist activity against phospholipase C coupled recombinant human P2Y purinoceptor 6 (P2Y6); format: functional
# P2Y purinoceptor 1 [3] = target: P2Y purinoceptor 1 (Homo sapiens, UniProt P47900); assay: Evaluated for agonist activity against phospholipase C coupled P2Y purinoceptor 1 (P2Y1) of human erythrocytes; format: functional
# P2Y purinoceptor 2 = P2Y purinoceptor 2 (Homo sapiens, UniProt P41231); assay: Evaluated for agonist activity against phospholipase C coupled recombinant human P2Y purinoceptor 2 (P2Y2); format: functional
# P2X purinoceptor 4 [4] = target: T2, P2X purinoceptor 4 (Homo sapiens, UniProt Q99571); assay: Antagonist activity against recombinant human P2X purinoceptor 4 (P2X4); format: functional
# T2 sequence (Q99571 whole entry): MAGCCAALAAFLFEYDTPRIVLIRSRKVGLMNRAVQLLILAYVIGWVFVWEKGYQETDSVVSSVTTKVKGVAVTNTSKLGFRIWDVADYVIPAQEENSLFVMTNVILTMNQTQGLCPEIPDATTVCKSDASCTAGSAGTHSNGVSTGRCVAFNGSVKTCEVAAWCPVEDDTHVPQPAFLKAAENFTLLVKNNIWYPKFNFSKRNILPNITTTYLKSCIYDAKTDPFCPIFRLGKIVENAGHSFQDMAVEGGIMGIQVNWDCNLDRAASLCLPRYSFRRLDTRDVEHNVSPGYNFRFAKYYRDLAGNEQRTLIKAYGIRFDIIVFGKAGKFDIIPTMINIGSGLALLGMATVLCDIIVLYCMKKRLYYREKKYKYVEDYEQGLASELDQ
# P2Y purinoceptor 12 = P2Y purinoceptor 12 (Rattus norvegicus, UniProt Q9EPX4); assay: Antagonist activity against phospholipase C coupled rat P2Y purinoceptor 12 (P2Y12); format: functional
# P2Y purinoceptor 11 = target: T3, P2Y purinoceptor 11 (Homo sapiens, UniProt Q96G91); assay: Agonist activity against phospholipase C coupled human P2Y purinoceptor 11 (P2Y11); format: functional
# T3 sequence (Q96G91 whole entry): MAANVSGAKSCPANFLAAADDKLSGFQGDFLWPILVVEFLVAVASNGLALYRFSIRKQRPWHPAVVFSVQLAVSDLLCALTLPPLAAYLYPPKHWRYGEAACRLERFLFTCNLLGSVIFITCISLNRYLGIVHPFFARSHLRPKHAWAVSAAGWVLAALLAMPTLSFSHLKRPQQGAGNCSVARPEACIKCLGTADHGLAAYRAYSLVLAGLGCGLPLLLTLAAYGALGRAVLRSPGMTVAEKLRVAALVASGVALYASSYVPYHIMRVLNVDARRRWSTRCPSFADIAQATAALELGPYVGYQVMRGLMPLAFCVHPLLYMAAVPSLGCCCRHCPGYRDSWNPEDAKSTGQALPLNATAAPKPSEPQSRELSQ
# P2X purinoceptor 2 = target: T4, P2X purinoceptor 2 (Rattus norvegicus, UniProt P49653); assay: Antagonist activity against recombinant rat receptor P2X purinoceptor 2 (P2X2) at 10 uM, expressed in Xenopus oocytes; format: functional, cell-based, Oocyte
# T4 sequence (P49653 whole entry): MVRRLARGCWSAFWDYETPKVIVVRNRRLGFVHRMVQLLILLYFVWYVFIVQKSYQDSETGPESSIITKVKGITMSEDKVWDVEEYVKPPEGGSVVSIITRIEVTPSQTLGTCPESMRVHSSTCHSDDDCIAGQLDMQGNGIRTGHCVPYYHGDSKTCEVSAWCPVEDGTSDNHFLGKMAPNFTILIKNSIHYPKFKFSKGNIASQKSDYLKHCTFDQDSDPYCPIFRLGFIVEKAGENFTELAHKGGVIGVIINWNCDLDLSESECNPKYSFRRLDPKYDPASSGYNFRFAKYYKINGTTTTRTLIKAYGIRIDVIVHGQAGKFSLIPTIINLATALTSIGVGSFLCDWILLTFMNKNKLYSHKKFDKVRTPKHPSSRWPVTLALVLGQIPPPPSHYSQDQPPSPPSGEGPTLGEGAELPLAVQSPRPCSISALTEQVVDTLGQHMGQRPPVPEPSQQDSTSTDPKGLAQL
# P2X purinoceptor 3 = target: T5, P2X purinoceptor 3 (Homo sapiens, UniProt P56373); assay: Antagonist activity against recombinant human P2X purinoceptor 3 (P2X3 ); format: functional
# T5 sequence (P56373 whole entry): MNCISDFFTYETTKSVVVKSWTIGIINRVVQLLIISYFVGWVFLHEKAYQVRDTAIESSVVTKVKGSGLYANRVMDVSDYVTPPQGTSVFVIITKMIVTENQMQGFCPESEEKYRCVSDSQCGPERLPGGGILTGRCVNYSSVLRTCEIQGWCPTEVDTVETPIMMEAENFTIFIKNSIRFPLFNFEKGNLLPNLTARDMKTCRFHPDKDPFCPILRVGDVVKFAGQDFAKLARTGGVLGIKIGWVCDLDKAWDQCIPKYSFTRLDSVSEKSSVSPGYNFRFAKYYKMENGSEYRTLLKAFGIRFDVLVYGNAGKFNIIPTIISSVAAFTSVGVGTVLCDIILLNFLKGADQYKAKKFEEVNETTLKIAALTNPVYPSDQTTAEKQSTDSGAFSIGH
# P2X purinoceptor 1 [5] = target: T6, P2X purinoceptor 1 (Homo sapiens, UniProt P51575); assay: Antagonist activity against recombinant human P2X purinoceptor 1 (P2X1 ); format: functional
# T6 sequence (P51575 whole entry): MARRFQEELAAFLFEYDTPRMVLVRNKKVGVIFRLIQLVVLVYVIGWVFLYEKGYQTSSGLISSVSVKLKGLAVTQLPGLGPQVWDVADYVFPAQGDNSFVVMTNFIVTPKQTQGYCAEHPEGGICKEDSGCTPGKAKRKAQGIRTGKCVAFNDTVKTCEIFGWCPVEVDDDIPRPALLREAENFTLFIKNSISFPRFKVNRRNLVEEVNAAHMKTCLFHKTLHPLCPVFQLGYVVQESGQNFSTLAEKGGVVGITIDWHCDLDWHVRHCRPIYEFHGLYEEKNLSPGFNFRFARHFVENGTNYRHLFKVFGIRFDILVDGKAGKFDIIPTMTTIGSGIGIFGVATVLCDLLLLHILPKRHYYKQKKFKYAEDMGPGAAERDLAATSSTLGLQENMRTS
# P2X purinoceptor 6 = P2X purinoceptor 6 (Rattus norvegicus, UniProt P51579); assay: Antagonist activity against recombinant rat P2X purinoceptor 6 (P2X6 ); format: functional
# P2X purinoceptor 4 [6] = target: T7, P2X purinoceptor 4 (Rattus norvegicus, UniProt P51577); assay: Antagonist activity against recombinant rat P2X purinoceptor 4 (P2X4) at 30 uM, expressed in Xenopus oocytes; format: functional, cell-based, Oocyte
# T7 sequence (P51577 whole entry): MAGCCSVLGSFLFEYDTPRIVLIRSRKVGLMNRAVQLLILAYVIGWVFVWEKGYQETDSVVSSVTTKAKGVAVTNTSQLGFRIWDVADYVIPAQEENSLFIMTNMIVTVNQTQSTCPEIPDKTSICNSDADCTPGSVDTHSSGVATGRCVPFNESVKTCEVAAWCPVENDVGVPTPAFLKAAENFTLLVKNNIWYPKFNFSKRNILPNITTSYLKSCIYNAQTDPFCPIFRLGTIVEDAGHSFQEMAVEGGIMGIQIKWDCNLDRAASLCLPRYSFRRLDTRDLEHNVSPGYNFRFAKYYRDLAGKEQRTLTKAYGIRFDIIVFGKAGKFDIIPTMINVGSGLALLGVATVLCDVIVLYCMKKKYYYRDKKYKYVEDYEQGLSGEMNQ
# P2X purinoceptor 5 = target: T8, P2X purinoceptor 5 (Rattus norvegicus, UniProt P51578); assay: Antagonist activity against recombinant rat P2X purinoceptor 5 (P2X5); format: functional
# T8 sequence (P51578 whole entry): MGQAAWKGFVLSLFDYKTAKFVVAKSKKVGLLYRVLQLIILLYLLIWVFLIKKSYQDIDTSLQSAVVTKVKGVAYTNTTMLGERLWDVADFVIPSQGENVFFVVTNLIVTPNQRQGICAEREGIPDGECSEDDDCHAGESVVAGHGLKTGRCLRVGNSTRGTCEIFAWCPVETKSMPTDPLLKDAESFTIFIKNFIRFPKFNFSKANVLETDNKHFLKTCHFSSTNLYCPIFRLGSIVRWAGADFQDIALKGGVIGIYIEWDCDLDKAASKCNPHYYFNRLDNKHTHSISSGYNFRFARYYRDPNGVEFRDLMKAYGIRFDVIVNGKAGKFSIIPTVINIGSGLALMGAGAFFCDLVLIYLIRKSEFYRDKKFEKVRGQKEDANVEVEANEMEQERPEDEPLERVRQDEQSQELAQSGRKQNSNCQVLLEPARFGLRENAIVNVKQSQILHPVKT
# P2Y purinoceptor 4 = P2Y purinoceptor 4 (Homo sapiens, UniProt P51582); assay: The compound was evaluated for antagonist activity against phospholipase C coupled recombinant human P2Y purinoceptor 4 (P2Y4); format: functional
# P2Y purinoceptor 1 [7] = target: P2Y purinoceptor 1 (Meleagris gallopavo, UniProt P49652); assay: Evaluated for agonist activity against phospholipase C coupled P2Y purinoceptor 1 (P2Y1) of turkey erythrocytes; format: functional
# P2Y purinoceptor 1 (Meleagris gallopavo, UniProt P49652), sequence (P49652 whole entry): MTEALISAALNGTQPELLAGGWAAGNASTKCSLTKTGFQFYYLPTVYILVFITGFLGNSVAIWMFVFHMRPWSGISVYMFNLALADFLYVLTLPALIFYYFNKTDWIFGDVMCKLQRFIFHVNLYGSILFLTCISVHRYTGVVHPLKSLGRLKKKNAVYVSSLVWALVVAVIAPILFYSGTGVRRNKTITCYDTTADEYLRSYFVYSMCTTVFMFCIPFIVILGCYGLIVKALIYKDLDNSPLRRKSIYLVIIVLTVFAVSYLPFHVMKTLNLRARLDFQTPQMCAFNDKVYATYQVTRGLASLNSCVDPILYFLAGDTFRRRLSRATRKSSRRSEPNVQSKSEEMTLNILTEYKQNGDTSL
# P2Y purinoceptor 2, sequence (P41231 whole entry): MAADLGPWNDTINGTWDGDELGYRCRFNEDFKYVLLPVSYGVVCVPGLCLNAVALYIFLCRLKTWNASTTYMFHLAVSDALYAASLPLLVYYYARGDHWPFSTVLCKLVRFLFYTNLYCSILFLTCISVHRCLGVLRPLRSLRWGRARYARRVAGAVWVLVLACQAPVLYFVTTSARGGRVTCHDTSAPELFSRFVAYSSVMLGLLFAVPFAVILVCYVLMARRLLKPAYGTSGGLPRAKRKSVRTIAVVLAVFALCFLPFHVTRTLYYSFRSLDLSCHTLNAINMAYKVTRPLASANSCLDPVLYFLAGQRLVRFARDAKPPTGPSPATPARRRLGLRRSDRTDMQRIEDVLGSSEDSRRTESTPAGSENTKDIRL
# P2Y purinoceptor 6, sequence (Q15077 whole entry): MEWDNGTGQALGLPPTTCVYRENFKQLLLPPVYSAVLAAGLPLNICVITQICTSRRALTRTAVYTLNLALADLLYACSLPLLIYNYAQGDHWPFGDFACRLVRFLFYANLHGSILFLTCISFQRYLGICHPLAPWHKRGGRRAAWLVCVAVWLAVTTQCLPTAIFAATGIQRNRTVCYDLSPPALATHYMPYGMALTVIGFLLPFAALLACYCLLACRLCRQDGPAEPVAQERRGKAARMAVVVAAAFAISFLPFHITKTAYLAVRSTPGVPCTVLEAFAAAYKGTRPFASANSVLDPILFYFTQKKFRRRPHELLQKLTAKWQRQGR
# P2Y purinoceptor 12, sequence (Q9EPX4 whole entry): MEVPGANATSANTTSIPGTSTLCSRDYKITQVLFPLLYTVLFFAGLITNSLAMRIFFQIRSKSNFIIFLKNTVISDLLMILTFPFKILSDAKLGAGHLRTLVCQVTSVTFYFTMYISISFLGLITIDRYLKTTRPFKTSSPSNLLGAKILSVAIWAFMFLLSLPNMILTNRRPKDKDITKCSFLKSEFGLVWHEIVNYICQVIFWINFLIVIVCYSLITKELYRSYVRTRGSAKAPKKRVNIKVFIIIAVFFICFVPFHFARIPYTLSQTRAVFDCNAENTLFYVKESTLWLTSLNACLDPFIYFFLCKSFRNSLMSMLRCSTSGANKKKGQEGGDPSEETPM
# P2Y purinoceptor 1 (Homo sapiens, UniProt P47900), sequence (P47900 whole entry): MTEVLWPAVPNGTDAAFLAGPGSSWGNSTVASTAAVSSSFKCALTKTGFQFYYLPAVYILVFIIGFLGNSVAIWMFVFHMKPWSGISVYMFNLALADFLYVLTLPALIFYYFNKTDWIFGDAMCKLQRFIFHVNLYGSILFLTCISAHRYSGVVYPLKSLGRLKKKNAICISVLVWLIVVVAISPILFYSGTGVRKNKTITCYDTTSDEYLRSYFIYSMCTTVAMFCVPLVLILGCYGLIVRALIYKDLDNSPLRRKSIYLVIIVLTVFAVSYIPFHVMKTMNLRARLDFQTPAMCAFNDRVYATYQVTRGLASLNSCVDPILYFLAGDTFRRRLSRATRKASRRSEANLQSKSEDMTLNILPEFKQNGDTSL
# P2Y purinoceptor 4, sequence (P51582 whole entry): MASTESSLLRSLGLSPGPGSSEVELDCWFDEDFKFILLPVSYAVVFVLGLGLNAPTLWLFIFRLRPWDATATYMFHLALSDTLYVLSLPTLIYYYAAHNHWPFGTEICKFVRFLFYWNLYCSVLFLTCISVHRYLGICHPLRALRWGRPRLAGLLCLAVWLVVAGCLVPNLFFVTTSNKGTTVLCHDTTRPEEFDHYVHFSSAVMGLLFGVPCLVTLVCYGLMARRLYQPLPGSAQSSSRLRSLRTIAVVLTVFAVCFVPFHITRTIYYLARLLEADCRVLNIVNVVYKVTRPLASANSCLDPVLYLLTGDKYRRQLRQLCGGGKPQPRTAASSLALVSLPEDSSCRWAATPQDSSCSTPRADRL
# P2X purinoceptor 6, sequence (P51579 whole entry): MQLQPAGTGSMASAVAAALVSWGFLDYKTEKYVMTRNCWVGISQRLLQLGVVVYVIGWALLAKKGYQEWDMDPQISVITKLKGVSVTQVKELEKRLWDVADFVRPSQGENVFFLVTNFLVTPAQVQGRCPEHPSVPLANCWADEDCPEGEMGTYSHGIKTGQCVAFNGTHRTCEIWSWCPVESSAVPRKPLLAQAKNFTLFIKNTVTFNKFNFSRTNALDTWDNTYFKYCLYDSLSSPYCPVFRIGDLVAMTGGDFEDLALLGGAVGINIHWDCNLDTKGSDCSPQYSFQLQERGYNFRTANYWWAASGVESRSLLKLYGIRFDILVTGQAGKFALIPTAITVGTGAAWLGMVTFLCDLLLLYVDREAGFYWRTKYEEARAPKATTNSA
compound,measurement,setting,value
Cc1nc(/N=N/c2cc(S(=O)(=O)O)c3cc([N+](=O)[O-])cc(S(=O)(=O)O)c3c2)c(COP(=O)(O)O)c(C=O)c1O,EC50,P2X purinoceptor 1 [1],0.014 µM
Nc1c(S(=O)(=O)O)cc(Nc2ccc(Nc3nc(Cl)nc(Cl)n3)c(S(=O)(=O)O)c2)c2c1C(=O)c1ccccc1C2=O,IC50,P2X purinoceptor 1 [2],8.8 µM
O=c1ccn([C@@H]2O[C@H](COP(=O)(O)OP(=O)(O)O)[C@@H](O)[C@H]2O)c(=O)[nH]1 [URIDINE_DIPHOSPHATE],EC50,P2Y purinoceptor 6,0.3 µM
same,EC50,P2Y purinoceptor 1 [3],> 100 µM
same,EC50,P2Y purinoceptor 2,> 100 µM
Nc1ncnc2c1ncn2[C@@H]1O[C@H](COP(=O)(O)OP(=O)(O)S)[C@@H](O)[C@H]1O (some centres undefined),EC50,P2X purinoceptor 4 [4],25 µM
same,EC50,P2Y purinoceptor 12,0.082 µM
same,EC50,P2Y purinoceptor 11,30 µM
same,EC50,P2X purinoceptor 2,100 µM
same,EC50,P2X purinoceptor 3,8.8 µM
same,EC50,P2X purinoceptor 1 [5],2.5 µM
CSc1nc(N)c2ncn([C@@H]3O[C@H](COP(=O)(O)OP(=O)(O)OP(=O)(O)O)[C@@H](O)[C@H]3O)c2n1,EC50,P2X purinoceptor 4 [4],1 µM
same,EC50,P2X purinoceptor 6,0.6 µM
same,EC50,P2Y purinoceptor 12,0.0011 µM
same,EC50,P2Y purinoceptor 11,50 µM
same,EC50,P2X purinoceptor 4 [6],7.4 µM
same,EC50,P2X purinoceptor 2,1.5 µM
same,EC50,P2X purinoceptor 5,1 µM
same,EC50,P2X purinoceptor 3,0.35 µM
same,EC50,P2Y purinoceptor 6,100 µM
same,EC50,P2X purinoceptor 1 [5],0.054 µM
Cc1cc(C)c(Nc2cc(S(=O)(=O)O)c(N)c3c2C(=O)c2ccccc2C3=O)c(C)c1 [ACID BLUE 129],Kd,P2X purinoceptor 1 [2],> 100 µM
CSc1nc(N)c2ncn([C@@H]3O[C@H](COP(=O)(O)OP(=O)(O)O)[C@@H](O)[C@H]3O)c2n1,EC50,P2Y purinoceptor 2,> 100 µM
CNc1nc(Cl)nc2c1ncn2[C@H]1C[C@@H](OP(=O)(O)O)[C@]2(COP(=O)(O)O)C[C@H]12,EC50,P2Y purinoceptor 4,> 100 µM
same,EC50,P2Y purinoceptor 12,> 100 µM
same,EC50,P2Y purinoceptor 11,> 100 µM
same,EC50,P2Y purinoceptor 1 [7],0.052 µM
same,EC50,P2Y purinoceptor 6,> 100 µM
same,EC50,P2Y purinoceptor 2,> 100 µM
